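Tested at 5 concentrations; 48 h exposure; 96-well plates; endpoints linearly interpolated, else capped at highest concentration. Here, GI50 denotes the concentration required for 50% inhibition of growth. At the TGI there is no net growth.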
Experiments:
Assay in all cases: inhibition of tumour cell growth, NCI panel, 48 h
IGROV1 ovarian = system: IGROV1 ovarian
NCI-H522 lung = system: NCI-H522 lung
SK-OV-3 ovarian = system: SK-OV-3 ovarian
KM12 colon = system: KM12 colon
SK-MEL-5 melanoma = system: SK-MEL-5 melanoma
CAKI-1 renal = system: CAKI-1 renal
BT-549 breast = system: BT-549 breast
SR leukemia = system: SR leukemia
SF-295 CNS = system: SF-295 CNS
HL-60(TB) leukemia = system: HL-60(TB) leukemia
SNB-19 CNS = system: SNB-19 CNS
RXF 393 renal = system: RXF 393 renal
COLO 205 colon = system: COLO 205 colon
A498 renal = system: A498 renal
MDA-MB-231 breast = system: MDA-MB-231 breast
TK-10 renal = system: TK-10 renal
ACHN renal = system: ACHN renal
NCI-H460 lung = system: NCI-H460 lung
HT29 colon = system: HT29 colon
SW-620 colon = system: SW-620 colon
SF-539 CNS = system: SF-539 CNS
HCC-2998 colon = system: HCC-2998 colon
NCI-H226 lung = system: NCI-H226 lung
MDA-MB-435 = system: MDA-MB-435
SK-MEL-28 melanoma = system: SK-MEL-28 melanoma
HOP-92 NSCLC = system: HOP-92 NSCLC
A549 NSCLC = system: A549 NSCLC
DU-145 prostate = system: DU-145 prostate
RPMI-8226 leukemia = system: RPMI-8226 leukemia
T-47D breast = system: T-47D breast
UACC-62 melanoma = system: UACC-62 melanoma
NCI/ADR-RES ovarian = system: NCI/ADR-RES ovarian
HCT-15 colon = system: HCT-15 colon
786-0 renal = system: 786-0 renal
OVCAR-4 ovarian = system: OVCAR-4 ovarian
CCRF-CEM leukemia = system: CCRF-CEM leukemia
MOLT-4 leukemia = system: MOLT-4 leukemia
UO-31 renal = system: UO-31 renal
SN12C renal = system: SN12C renal
HOP-62 NSCLC = system: HOP-62 NSCLC
SNB-75 CNS = system: SNB-75 CNS
HS 578T breast = system: HS 578T breast
NCI-H23 lung = system: NCI-H23 lung
EKVX NSCLC = system: EKVX NSCLC
OVCAR-8 ovarian = system: OVCAR-8 ovarian
K-562 leukemia = system: K-562 leukemia
SK-MEL-2 melanoma = system: SK-MEL-2 melanoma
OVCAR-3 ovarian = system: OVCAR-3 ovarian
LOX IMVI melanoma = system: LOX IMVI melanoma
MALME-3M melanoma = system: MALME-3M melanoma
M14 melanoma = system: M14 melanoma
HCT-116 colon = system: HCT-116 colon
U251 CNS = system: U251 CNS
PC-3 prostate = system: PC-3 prostate
SF-268 CNS = system: SF-268 CNS
OVCAR-5 ovarian = system: OVCAR-5 ovarian

Structure (SMILES): C=C1C(=O)O[C@H]2[C@H]1CC/C(CNC(=O)c1cc3cc(OC)ccc3[nH]1)=C\CC[C@@]1(C)O[C@@H]21
- GI50 (IGROV1 ovarian): 2040 nM
- TGI (IGROV1 ovarian): 5940 nM
- GI50 (NCI-H522 lung): 700 nM
- TGI (NCI-H522 lung): 2550 nM
- GI50 (SK-OV-3 ovarian): 11200 nM
- TGI (SK-OV-3 ovarian): 23500 nM
- GI50 (KM12 colon): 4980 nM
- TGI (KM12 colon): 17700 nM
- GI50 (SK-MEL-5 melanoma): 2010 nM
- TGI (SK-MEL-5 melanoma): 4850 nM
- GI50 (CAKI-1 renal): 1970 nM
- TGI (CAKI-1 renal): 6250 nM
- GI50 (BT-549 breast): 1440 nM
- TGI (BT-549 breast): 3420 nM
- GI50 (SR leukemia): 2240 nM
- TGI (SR leukemia): 10100 nM
- GI50 (SF-295 CNS): 4890 nM
- TGI (SF-295 CNS): 18700 nM
- GI50 (HL-60(TB) leukemia): 1970 nM
- TGI (HL-60(TB) leukemia): 6370 nM
- GI50 (SNB-19 CNS): 7940 nM
- TGI (SNB-19 CNS): 21700 nM
- GI50 (RXF 393 renal): 1170 nM
- TGI (RXF 393 renal): 2610 nM
- GI50 (COLO 205 colon): 1210 nM
- TGI (COLO 205 colon): 3040 nM
- GI50 (A498 renal): 1930 nM
- TGI (A498 renal): 8640 nM
- GI50 (MDA-MB-231 breast): 1710 nM
- TGI (MDA-MB-231 breast): 4490 nM
- GI50 (TK-10 renal): 1880 nM
- TGI (TK-10 renal): 4610 nM
- GI50 (ACHN renal): 1240 nM
- TGI (ACHN renal): 2840 nM
- GI50 (NCI-H460 lung): 5510 nM
- TGI (NCI-H460 lung): 20000 nM
- GI50 (HT29 colon): 1410 nM
- TGI (HT29 colon): 4510 nM
- GI50 (SW-620 colon): 1150 nM
- TGI (SW-620 colon): 2770 nM
- GI50 (SF-539 CNS): 1420 nM
- TGI (SF-539 CNS): 3000 nM
- GI50 (HCC-2998 colon): 1660 nM
- TGI (HCC-2998 colon): 3260 nM
- GI50 (NCI-H226 lung): 1710 nM
- TGI (NCI-H226 lung): 4600 nM
- GI50 (MDA-MB-435): 1730 nM
- TGI (MDA-MB-435): 5030 nM
- GI50 (SK-MEL-28 melanoma): 1620 nM
- TGI (SK-MEL-28 melanoma): 4230 nM
- GI50 (HOP-92 NSCLC): 1560 nM
- TGI (HOP-92 NSCLC): 3350 nM
- GI50 (A549 NSCLC): 3690 nM
- TGI (A549 NSCLC): 14400 nM
- GI50 (DU-145 prostate): 1210 nM
- TGI (DU-145 prostate): 2780 nM
- GI50 (RPMI-8226 leukemia): 1580 nM
- TGI (RPMI-8226 leukemia): 4390 nM
- GI50 (T-47D breast): 1470 nM
- TGI (T-47D breast): 4350 nM
- GI50 (UACC-62 melanoma): 1520 nM
- TGI (UACC-62 melanoma): 3610 nM
- GI50 (NCI/ADR-RES ovarian): 6070 nM
- TGI (NCI/ADR-RES ovarian): 23700 nM
- GI50 (HCT-15 colon): 825 nM
- TGI (HCT-15 colon): 2230 nM
- GI50 (786-0 renal): 1510 nM
- TGI (786-0 renal): 3200 nM
- GI50 (OVCAR-4 ovarian): 2000 nM
- TGI (OVCAR-4 ovarian): 7570 nM
- GI50 (CCRF-CEM leukemia): 1970 nM
- TGI (CCRF-CEM leukemia): 5930 nM
- GI50 (MOLT-4 leukemia): 2080 nM
- TGI (MOLT-4 leukemia): 6850 nM
- GI50 (UO-31 renal): 1270 nM
- TGI (UO-31 renal): 2640 nM
- GI50 (SN12C renal): 1700 nM
- TGI (SN12C renal): 4870 nM
- GI50 (HOP-62 NSCLC): 3220 nM
- TGI (HOP-62 NSCLC): 13800 nM
- GI50 (SNB-75 CNS): 1900 nM
- TGI (SNB-75 CNS): 13100 nM
- GI50 (HS 578T breast): 2880 nM
- TGI (HS 578T breast): 11800 nM
- GI50 (NCI-H23 lung): 1770 nM
- TGI (NCI-H23 lung): 4380 nM
- GI50 (EKVX NSCLC): 1280 nM
- TGI (EKVX NSCLC): 3000 nM
- GI50 (OVCAR-8 ovarian): 2060 nM
- TGI (OVCAR-8 ovarian): 7780 nM
- GI50 (K-562 leukemia): 2560 nM
- TGI (K-562 leukemia): 7990 nM
- GI50 (SK-MEL-2 melanoma): 2180 nM
- TGI (SK-MEL-2 melanoma): 5240 nM
- GI50 (OVCAR-3 ovarian): 1210 nM
- TGI (OVCAR-3 ovarian): 2570 nM
- GI50 (LOX IMVI melanoma): 1360 nM
- TGI (LOX IMVI melanoma): 2670 nM
- GI50 (MALME-3M melanoma): 1620 nM
- TGI (MALME-3M melanoma): 3980 nM
- GI50 (M14 melanoma): 1500 nM
- TGI (M14 melanoma): 3540 nM
- GI50 (HCT-116 colon): 645 nM
- TGI (HCT-116 colon): 2070 nM
- GI50 (U251 CNS): 3350 nM
- TGI (U251 CNS): 12600 nM
- GI50 (PC-3 prostate): 1860 nM
- TGI (PC-3 prostate): 4040 nM
- GI50 (SF-268 CNS): 1790 nM
- TGI (SF-268 CNS): 4470 nM
- GI50 (OVCAR-5 ovarian): 2190 nM
- TGI (OVCAR-5 ovarian): 7350 nM

From PubChem BioAssay (NCI)
